Measurements taken from patent US20230047816A1 (priority 2018, published 2023).
pIC50: −log10 of the molar value.

What was measured:
[1] = test system: neurons; assay: Neuroprotection, protection factor, b-amyloid treatment; type: cell-based; conditions: Treatment beta-amyloid, 24 hours
Procedure: For NMDAR activation, neurons at 8 days in vitro were incubated 100 μM NMDA (plus 10 μM glycine) for 10 minutes. Neurons were then washed and further incubated in culture medium with the PFKFB3 inhibitors for 24 hours. For b-amyloid treatment, neurons at 8 days in vitro were incubated with […] b-amyloid plus the PFKFB3 inhibitors for 24 hours. The Protection factor was estimated as [AMC(beta-A)−AMC(DMSO)]/[AMC(beta-A)−AMC(Test article)] or [AMC(beta-A)−AMC(DMSO)]/[AMC(NMDA)−AMC(Test article)], where:
AMC(DMSO)—% dead neuron in case of DMSO treatment
AMC(beta—A)—% dead neuron in case of b—amyloid treatment
AMC(Test article)—% dead neuron in case of PFKFB3 inhibitors treatment.

[2] = target: Recombinant full length human PFKFB3 (Homo sapiens, UniProt Q16875); assay: PFKFB3 kinase activity assay (ADP production, ADP-Glo)
Sequence of Recombinant full length human PFKFB3 (Q16875 whole entry): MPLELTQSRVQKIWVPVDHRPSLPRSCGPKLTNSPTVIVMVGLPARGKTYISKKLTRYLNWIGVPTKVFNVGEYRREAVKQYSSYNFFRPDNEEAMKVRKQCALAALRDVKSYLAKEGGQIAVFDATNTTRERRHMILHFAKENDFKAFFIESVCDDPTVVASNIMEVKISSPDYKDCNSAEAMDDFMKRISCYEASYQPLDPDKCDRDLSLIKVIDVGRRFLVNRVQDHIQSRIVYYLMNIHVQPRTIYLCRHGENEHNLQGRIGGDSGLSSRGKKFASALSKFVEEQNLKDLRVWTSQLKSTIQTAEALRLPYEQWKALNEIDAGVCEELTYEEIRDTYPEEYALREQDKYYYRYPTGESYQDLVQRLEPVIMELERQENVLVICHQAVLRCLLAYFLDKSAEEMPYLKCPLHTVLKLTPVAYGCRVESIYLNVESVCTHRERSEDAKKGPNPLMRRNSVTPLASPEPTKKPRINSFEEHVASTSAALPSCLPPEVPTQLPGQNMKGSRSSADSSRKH

SMILES	pIC50 [2]	Protection factors [1]
O=C(O)c1ccc2c(c1)C(=O)N(c1cc(-c3ccc(Cl)cc3Cl)ccc1C(=O)O)C2=O		1.75
CN(C)CCOC(=O)c1ccc(-c2ccc(Cl)cc2Cl)cc1NC(=O)c1ccc(C(=O)N=S(C)(C)=O)cc1C(=O)O		1.43
O=C(O)c1cc(C(=O)O)c(C(=O)Nc2cc(-c3ccc(Cl)cc3Cl)ccc2C(=O)O)cc1O [4-({4-carboxy-2′,4′-dichloro-[1,1′-biphenyl]-3-yl}carbamoyl)-6-hydroxybenzene-1,3-dicarboxylic acid]		8.07
Cc1noc(C)c1Cn1cc(C#N)c2cc(Oc3ccc(NC(=O)[C@@H]4CCCN4)cc3)ccc21 [(2S)-N-[4-({3-cyano-1-[(3,5-dimethyl-1,2-oxazol-4-yl)methyl]-1H-indol-5-yl}oxy)phenyl]pyrrolidine-2-carboxamide]		1.68
O=C(O)c1ccc(-c2ccc(F)c(F)c2)cc1N1Cc2ccc(-c3cn[nH]n3)cc2C1=O		12.17
CCOC(=O)c1ccc(-c2ccc(F)c(F)c2)cc1N1Cc2ccc(-c3cn[nH]n3)cc2C1=O		2.35
CC1(C)CCC(c2ccc(C(=O)O)c(NC(=O)c3cc(C(=O)O)c(O)cc3C(=O)O)c2)CC1 [2-{[2-carboxy-5-(4,4-dimethylcyclohexyl)phenyl]carbamoyl}-5-hydroxybenzene-1,4-dicarboxylic acid]		2.05
O=C(O)c1ccc(-c2ccc(F)c(F)c2)cc1N1C(=O)c2cc(Cl)c(-c3cn[nH]n3)cc2C1=O		1.15
O=C(O)c1cc2c(cc1O)C(=O)N(c1cc(-c3ccc(F)c(F)c3)ccc1C(=O)O)C2=O		2.15
CC1(C)CCN(c2ccc(C(=O)O)c(NC(=O)c3cc(O)c(C(=O)O)cc3C(=O)O)c2)CC1 [4-{[2-carboxy-5-(4,4-dimethylpiperidin-1-yl)phenyl]carbamoyl}-6-hydroxybenzene-1,3-dicarboxylic acid]		4.33
CC(C)Cn1cc(C#N)c2cc(Oc3ccc(NC(=O)[C@@H]4CCCN4)cc3)ccc21 [(2S)-N-(4-{[3-cyano-1-(2-methylpropyl)-1H-indol-5-yl]oxy]phenyl)pyrrolidine-2-carboxamide]		1.97
O=C(O)c1ccc2c(c1)C(=O)N(c1ccc(-c3c[nH]cn3)cc1C(=O)O)C2=O [Compound 75, 2-[2-Carboxy-4-(1H-imidazol-4-yl)-phenyl]-1,3-dioxo-2,3-dihydro-1H-isoindole-5-carboxylic Acid]	> 6.30	
Cc1cnc(N2C(=O)c3ccc(-c4c[nH]nn4)cc3C2=O)cc1-c1ccc(F)cc1F [Compound 90, 2-[4-(2,4-Difluoro-phenyl)-5-methyl-pyridin-2-yl]-5-(1H-[1,2,3]triazol-4-yl)-isoindole-1,3-dione]	5.30 to 5.70	
NC(=O)c1ccc(-c2ccc(F)c(F)c2)cc1N1Cc2ccc(C(=O)O)cc2C1=O [Compound 119, 2-(4-Carbamoyl-3′,4′-difluorobiphenyl-3-yl)-3-oxo-2,3-dihydro-1H-isoindole-5-carboxylic acid]	4.70 to 5.30	
NC(=O)c1ccc(-c2ccccc2)cc1N1C(=O)c2ccc(-c3nnn[nH]3)cc2C1=O [Compound 98, 3-[1,3-Dioxo-5-(1H-tetrazol-5-yl)-1,3-dihydroisoindol-2-yl]biphenyl-4-carboxylic acid amide]	5.30 to 5.70	
O=C1c2ccc(-c3c[nH]nn3)cc2C(=O)N1c1ccc(-c2ccccc2)nc1O [Compound 89, 2-(2-Hydroxy-6-phenylpyridin-3-yl)-5-(1H-[1,2,3]triazol-4-yl)-isoindole-1,3-dione]	> 4.70	
CC(C)[C@H](N)C(=O)OCCOC(=O)c1ccc(-c2ccccc2)cc1N1C(=O)c2ccc(-c3c[nH]nn3)cc2C1=O [Compound 74, 3-[1,3-Dioxo-5-(1H-[1,2,3]triazol-4-yl)-1,3-dihydroisoindol-2-yl]biphenyl-4-carboxylic acid 2-{[(2S)-2-amino-3-methylbutanoyl]oxy}ethyl ester]	> 4.70	
O=C1c2ccc(-c3c[nH]nn3)cc2C(=O)N1c1cc(-c2ccccc2)cc[n+]1[O-] [Compound 85, 2-{1,3-Dioxo-5-(1H-[1,2,3]triazol-4-yl)-2,3-dihydro-1H-isoindol-2-yl}-4-phenylpyridine N-oxide]	4.70 to 5.30	
CC(C)OC(=O)c1ccc(-c2ccc(F)c(F)c2)cc1N1Cc2ccc(-c3cn[nH]n3)cc2C1=O		1.43

Second part, led by results:

pIC50 [2]	SMILES	Protection factors [1]
> 6.30	COc1ccc(-c2ccc(C(=O)O)c(N3C(=O)c4ccc(C(=O)O)cc4C3=O)c2)cc1 [Example 55]	
> 4.70	COC(=O)c1cc(-c2ccccc2)ccc1N1C(=O)c2ccc(C(=O)NS(=O)(=O)c3ccccc3)cc2C1=O [compound 152, methyl 4-(1,3-dioxo-5-(phenylsulfonylcarbamoyl)isoindolin-2-yl)biphenyl-3-carboxylate]	
4.70 to 5.30	O=C(O)c1cc(-c2cnccn2)ccc1N1C(=O)c2ccc(-c3c[nH]nn3)cc2C1=O [Example 63]	
5.30 to 5.70	O=C(O)c1ccc2c(c1)C(=O)N(c1ccc(-c3ccccc3)cc1CO)C2=O [Example 4]	
5.30 to 5.70	Nc1ccc(-c2ccc(N3C(=O)c4ccc(-c5c[nH]nn5)cc4C3=O)c(C(=O)O)c2)cn1 [Example 65]	
> 6.30	O=C(O)c1ccc(C(=O)Nc2ncc([N+](=O)[O-])s2)c(C(=O)O)c1 [Example 38, 4-[(5-nitro-1,3-thiazol-2-yl)carbamoyl]benzene-1,3-dicarboxylic acid]	
5.70 to 6.30	CN(C)C(=O)c1cc(C(=O)O)c(O)cc1C(=O)Nc1cc(-c2ccc(Cl)cc2Cl)ccc1C(=O)O [Example 32, 3-(4-carboxy-2-(dimethylcarbamoyl)-5-hydroxybenzamido)-2′,4′-dichloro-[1,1′-biphenyl]-4-carboxylic acid]	
5.70 to 6.30	COc1ccc(-c2c(C)sc(N3C(=O)c4ccc(C(=O)N[C@@H](Cc5c[nH]c6ccccc56)C(=O)O)cc4C3=O)c2C#N)cc1 [Example 17]	
> 6.30	O=C(O)c1ccc2c(c1)C(=O)N(c1cc(-c3cc(F)c(F)cc3F)ccc1C(=O)O)C2=O [Compound 140, 2-(4-Carboxy-2′,4′,5′-trifluoro[1,1′-biphenyl]-3-yl)-1,3-dioxo-2,3-dihydro-1H-isoindole-5-carboxylic Acid]	
5.70 to 6.30	COc1ccc(-c2nnn[nH]2)c(N2C(=O)c3ccc(C(=O)O)cc3C2=O)c1 [Example 47, 2-[5-Methoxy-2-(1H-tetrazol-5-yl)phenyl]-1,3-dioxo-2,3-dihydro-1H-isoindole-5-carboxylic acid]	
4.70 to 5.30	O=C(O)c1ccc2c(c1)C(=O)N(c1cc(-c3ccccc3)ccc1CO)C2=O [Example 11]	
> 6.30	O=C(O)c1ccc2c(c1)C(=O)N(c1cc(-c3cccc(F)c3)ccc1C(=O)O)C2=O [Example 46]	
> 6.30	O=C(O)c1ccc2c(c1)C(=O)N(c1cc(-c3ccc(F)cc3)ccc1C(=O)O)C2=O [Example 45]	
5.70 to 6.30	COc1ccc(-c2c(C)sc(N3C(=O)c4ccc(C(=O)NS(C)(=O)=O)cc4C3=O)c2C#N)cc1 [Example 14]	
> 6.30	CN1CCC(OC(=O)c2ccc(-c3ccc(Cl)cc3Cl)cc2NC(=O)c2cc(O)c(C(=O)O)cc2C(=O)O)C1 (stereo not drawn) [Example 67, 4-[(2′,4′-dichloro-4-{[(1-methylpyrrolidin-3-yl)oxy]carbonyl}-[1,1′-biphenyl]-3-yl)carbamoyl]-6-hydroxybenzene-1,3-dicarboxylic acid]	
> 6.30	CC1(C)CCC(c2ccc(C(=O)O)c(NC(=O)c3cc(F)c(C(=O)O)cc3C(=O)O)c2)CC1 [Example 63, 4-{[2-carboxy-5-(4,4-dimethylcyclohexyl)phenyl]carbamoyl}-6-fluorobenzene-1,3-dicarboxylic acid]	
> 6.30	O=C(O)c1cc(-c2ccccc2)ccc1N1C(=O)c2ccc(-c3c[nH]nn3)cc2C1=O [Example 31, 4-[1,3-Dioxo-5-(1H-[1,2,3]triazol-4-yl)-1,3-dihydroisoindol-2-yl]biphenyl-3-carboxylic Acid]	
> 6.30	COc1ccc(-c2c(C)sc(NC(=O)c3ccc(C(=O)O)cc3C(=O)O)c2C#N)cc1 [Example 30, 4-{[3-cyano-4-(4-methoxyphenyl)-5-methylthiophen-2-yl]carbamoyl}benzene-1,3-dicarboxylic acid]	
> 4.70	Cn1cc(-c2ccccc2)cc(N2C(=O)c3ccc(-c4c[nH]nn4)cc3C2=O)c1=O [compound 147, 2-(1-methyl-2-oxo-5-phenyl-1,2-dihydropyridin-3-yl)-5-(1H-1,2,3-triazol-4-yl)isoindoline-1,3-dione]	
5.30 to 5.70	COc1ccc(-c2c(C)sc(N3C(=O)c4ccc(C(=O)N[C@@H](Cc5ccc(O)cc5)C(=O)O)cc4C3=O)c2C#N)cc1 [Compound 136, (2S)-2-({2-[3-Cyano-4-(4-methoxyphenyl)-5-methyl-thiophen-2-yl]-1,3-dioxo-2,3-dihydro-1H-isoindole-5-carbonyl}-amino)-3-(4-hydroxyphenyl)propanoic acid]	
5.30 to 5.70	O=C1c2ccc(-c3c[nH]nn3)cc2C(=O)N1c1cc(-c2ccccc2)ccc1-c1nnn[nH]1 [Example 54]	
5.30 to 5.70	NC(=O)c1[nH]nnc1-c1ccc2c(c1)C(=O)N(c1cc(-c3ccc(F)c(F)c3)ccc1C(=O)O)C2 [compound 164, 3-(6-(5-carbamoyl-1H-1,2,3-triazol-4-yl)-1-oxoisoindolin-2-yl)-3′,4′-difluorobiphenyl-4-carboxylic acid]	
> 6.30	O=C(O)c1ccc2c(c1)C(=O)N(c1cc(-c3cccs3)ccc1C(=O)O)C2=O [Example 48, 2-(2-Carboxy-5-thiophen-2-yl-phenyl)-1,3-dioxo-2,3-dihydro-1H-isoindole-5-carboxylic Acid]	
